Data reported in paper PMC10714399, “Open Source Antibiotics: Simple Diarylimidazoles Are Potent against Methicillin-Resistant Staphylococcus aureus” (ACS Infectious Diseases, 2023).
In brackets after ≈: the same amount, converted by molar mass.

Key:
[1] = Kinetic solubility estimation using nephelometry (Monash); type: physicochemical; settings: for Sol 2.0: 0.01 M HCl, approx pH 2.0; for Sol 6.5: pH 6.5 phosphate buffer
Experimental: Compound in DMSO was spiked into either pH 6.5 phosphate buffer or 0.01 M HCl (approximately pH 2.0) with the final DMSO concentration being 1%. […]
b) Kinetic Solubility Estimation using Nephelometry (SolpH)
Compound in DMSO was spiked into either pH 6.5 phosphate buffer or 0.01 M HCl (approx pH 2.0) with the final
DMSO concentration being 1%. After 30 minutes had elapsed, samples were then analysed via Nephelometry to
determine a solubility range. See Bevan and Lloyd (2000) Anal Chem, 72:1781-1787. […]
(§1) In Vitro Intrinsic Clearance […]
(§2) Experimental results are tabulated on the following page(s).
(§3) (1 picture or pasted object on this page, not shown here)

[2] = Distribution coefficient estimation using chromatography, gLogD (Monash); type: physicochemical
Text: Partition coefficient values (LogD) of the test compounds were estimated at pH 7.4 by the correlation of their chromatographic retention properties against the characteristics of a series of standard compounds with known partition coefficient values. The method employed is a gradient HPLC-based derivation of the method developed by Lombardo.[42] […]
c) Distribution Coefficient Estimation using Chromatography (gLogDpH)
Partition coefficient values (LogD) of the test compounds were estimated at pH 7.4 by correlation of their
chromatographic retention properties against the characteristics of a series of standard compounds with known
partition coefficient values. […]
as §1, §2, §3

[3] = In vitro metabolic stability, human liver microsomes (Monash); type: in vitro ADME; settings: NADPH
Experimental: (§4) The metabolic stability assay was performed by incubating each test compound with a suspension of liver microsomes (0.4 mg/mL protein, 1 μM substrate, 37 °C). Microsomes were purchased from XenoTech. The metabolic reaction was initiated by the addition of an NADPH-regenerating system and quenched at various time points over a 60 min incubation by the addition of acetonitrile containing metolazone as an internal standard. Control samples (containing no NADPH) were included (quenched at 2, 30, and 60 min) to monitor for potential degradation in the absence of cofactor. […]
(§5) d) In Vitro Metabolic Stability
(§6) The metabolic stability assay was performed by incubating each test compound with a suspension of liver
(§7) microsomes (0.4 mg/mL, 37°C). The metabolic reaction was initiated by the addition of an NADPH-regenerating
(§8) system and quenched at various time points over a 60 minute incubation by the addition of acetonitrile containing
(§9) metolazone as internal standard. Control samples (containing no NADPH) were included (quenched at 2, 30 and 60
(§10) minutes) to monitor for potential degradation in the absence of cofactor.
(§11) The human liver microsomes used in this experiment were supplied by XenoTech, lot # 1710084.The rat liver
(§12) microsomes used in this experiment were supplied by XenoTech, lot # 1610290. Microsomal incubations were
(§13) performed at a substrate concentration of 1 µM.
(§14) Data analysis and interpretation:
(§15) Substrate depletion as a function of time was analysed as described by Obach (1999) Drug Metab. Dispos., 27:1350-
(§16) 1359. Intrinsic clearance (CLint) values were classified at the limits of low and high clearance bands based on a
(§17) rearrangement of the well stirred model of hepatic elimination. It should be noted that the potential impact of
(§18) compound binding (either in microsomes or in blood) on the relationship between in vitro intrinsic clearance and
(§19) hepatic clearance in vivo has not been accounted for in these studies.
(§20) In Vitro Intrinsic Clearance
(§21) Species (µL/min/mg protein)
(§22) Low Clearance High Clearance
as §2, §3

[4] = In vitro metabolic stability, rat liver microsomes (Monash); type: in vitro ADME; settings: NADPH
Experimental: as §4, §5, §6, §7, §8, §9, §10, §11, §12, §13, §14, §15, §16, §17, §18, §19, §20, §21, §22, §2, §3

[5] = system: Staphylococcus aureus NCTC 13373 (mecA-positive; methicillin-resistant); experiment: In vitro antibacterial activity, MIC (UCL School of Pharmacy assay), MRSA; type: cell-based; settings: Staphylococcus aureus, UCL; read-out: MRSA MIC (UCL)
Outline: (§23)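 MIC determined over 32–0.03 μg/mL in 2-fold steps, with at most 2% DMSO, in isosensitest broth. Organisms were suspended in PBS to A600 0.1 (about 1 × 10^8 CFU/mL), diluted 1:100 and inoculated; vancomycin served as QC compound.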

[6] = system: Enterococcus faecalis ATCC 51299 (vanA-positive; vancomycin-resistant); experiment: In vitro antibacterial activity, MIC (UCL), VRE; type: cell-based; settings: read-out: VRE MIC (UCL)
Outline: as §23

[7] = Aqueous solubility; type: physicochemical; settings: NEU
[8] = LogD7.4 (Chrom Log D); type: physicochemical; settings: chromatographic system (Chrom Log D); pH 7.4, NEU; read-out: LogD 7.4 (NEU)
[9] = Human liver microsome intrinsic clearance; type: in vitro ADME; settings: human liver microsomes, NEU
[10] = Rat hepatocyte intrinsic clearance; type: in vitro ADME; settings: rat hepatocytes, NEU
[11] = system: MRC-5SV2 (human lung fibroblast cell line); experiment: Toxicity against MRC-5SV2; type: cell-based; settings: MRC5 cells
Experimental: (§24) ADME and toxicity for compounds were measured according to procedures outlined in the manuscript submitted in parallel to this one;2 other procedures were used for those compounds analysed by Monash University (in vitro ADME) or UCL (toxicity), both described in the main

[12] = system: PMM (primary mouse macrophages); experiment: Toxicity against PMM; type: cell-based; settings: PMM
Experimental: as §24

[13] = system: U2OS; experiment: Toxicity against U2OS; type: cell-based; settings: U2OS cells
Text: Supplement id3c00286_si_002.xlsx, sheet "Series 2 Data" | column: U2OS TC50 (uM)

[14] = system: THP1; experiment: Toxicity against THP1; type: cell-based; settings: THP1 cells
Text: Supplement id3c00286_si_002.xlsx, sheet "Series 2 Data" | column: THP1 TC50 (uM)

[15] = Human plasma protein binding (PPB); type: in vitro ADME; settings: human, plasma, human plasma, NEU; read-out: Human PPB (NEU) (converted)

c1ccc(-c2nc3n(c2-c2ccc4occc4c2)CCC3)nc1 [UNC-ALM-DAI-27]
Sol 2.0 [1]: > 100 µg/mL
Sol 6.5 [1]: 25 to 50 µg/mL
gLogD at pH 7.4 [2]: 1.9
CLint, in vitro [3]: 51 µL/min/mg protein
T1/2 [3]: 34 min
CLint, in vitro [4]: 72 µL/min/mg protein
T1/2 [4]: 24 min

c1ccc(-c2nc3ccccn3c2-c2ccc3c(c2)OCO3)nc1 [UNC-ALM-DAI-18]
Sol 2.0 [1]: > 100 µg/mL
Sol 6.5 [1]: 25 to 50 µg/mL
gLogD at pH 7.4 [2]: 1.8
CLint, in vitro [3]: 47 µL/min/mg protein
T1/2 [3]: 37 min
CLint, in vitro [4]: 99 µL/min/mg protein
T1/2 [4]: 18 min

Fc1ccc(-c2c(-c3ccccn3)nc3ccccn23)cc1 [OSA_000859]
MIC [5]: 32 µg/mL (≈ 111 µM)
MIC [6]: > 32 µg/mL
Aqueous Solubility (NEU) [7]: 178 µM
chromatographic logD [8]: 3
HLM CLint (NEU) [9]: 168 uL/min/mg protein
Rat Hep CLint (NEU) [10]: 49.8 uL/min/10x6 cells
MRC5 TC50 [11]: 10.3 µM
PMM TC50 [12]: 32 µM
U2OS TC50 [13]: 4.54 µM
THP1 TC50 [14]: 17 µM

COc1ccn2c(-c3ccccc3)c(-c3ccccn3)nc2c1 [OSA_000860]
MIC [5]: 8 µg/mL (≈ 26.5 µM)
MIC [6]: 32 µg/mL (≈ 106 µM)
solubility ([7]; thermodynamic from solid, read-out: Aqueous Solubility (NEU)): 79 µM (≈ 23.8 µg/mL)
chromatographic logD [8]: 3.1
fraction unbound [15]: 0.028
microsomal CLint ([9]; read-out: HLM CLint (NEU)): 224 µL/min/mg
hepatocyte CLint ([10]; read-out: Rat Hep CLint (NEU)): 23.9 µL/min/1e6 cells
MRC5 TC50 [11]: 3.92 µM
PMM TC50 [12]: 8 µM
U2OS TC50 [13]: 0.73 µM
THP1 TC50 [14]: 5.01 µM
